Laboratory results from patent publication US11826369B2, “Targeting the TLK1/NEK1 axis in prostate cancer” (Board of Supervisors of Louisiana State University and …, priority 2019, dated 2023).

Experiments:
LNCaP xenografts = experiment: LNCaP xenograft model; type: in vivo, NOD/SCID mice; settings: mouse, in vivo
Method: Treatment started 19 days after implantation when the tumors measure ˜200 mm^3. Two independent experiment with 5 mice per group were carried out. J54 and Bicalutamide was dissolved in DMSO and diluted in corn oil 1:10 and administered IP bi-weekly. Sectioning and processing of the tissues were carried out in the FWCC Histology Service, using automated processes and equipment to provide uniform and standardized results. Indirect labeling was with ABC Elite: RTU Vectastain Elite Reagent, Vector #PK-7100; DAB: ImmPact DAB, Vector #SK-4105. Light counterstaining was done with hematoxylin. […] Note the weak pNek1 stain in the tumor from mice treated with J54, in contrast to the increase seen with BIC.
LNCaP Xenograft Model and Immunohistochemistry (IHC): All animals used in this study were approved by LSUHSC IACUC and following ARRIVE guidelines. Male NOD/SCID mice (5 per group) were purchased from Jackson labs. LNCaP cells were injected as described earlier. Mice were treated IP bi-weekly with J54 (5 mg/kg body weight—dose estimation derived from pharmacokinetics study) and/or Bicalutamide (100 mg/kg).
The inventors sought to establish if the addition of J54 could suppress the resurgence of tumor growth of LNCaP xenografts and their latter conversion to CRPC. Following formation of sizeable tumors (˜200 mm^3), castration or anti-androgens arrest the progression of LNCaP xenografts for some time (2-3 weeks), while subsequently the tumors start growing again at an accelerated rate which is refractory to ADT (AI). Therefore, the inventors injected LNCaP cells in matrigel in both flanks of NOD-SCID mice, and then randomly assigned them to four treatment groups (n=5 per group×2 independent experiments), as shown in FIGS. 13A-13C. […] The inventors should also point out that the inventors treated the mice with J54 only bi-weekly due to the favorable pharmacokinetics, where maximal plasma concentration of 100 ng/ml ([…]) were reached 2 h after IP injection, and was still present at −6 ng/ml (6 μM) after 24 h (FIG. 18A-18C).

recombinant TLK1B [1] = target: T1, recombinant TLK1B (Homo sapiens, UniProt Q9UKI8); experiment: TLK1B kinase assay with Nek1 peptide (ADP Hunter), inhibitor screening; type: biochemical; set-up: The full-length, 65 KDa recombinant human TLK1B (hTLK1B) for the in-vitro experiments was expressed and purified from bacteria; made in house; host or cells: bacteria; settings: tested at 20 μM
T1 sequence (Q9UKI8 1-549 isoform Q9UKI8-3): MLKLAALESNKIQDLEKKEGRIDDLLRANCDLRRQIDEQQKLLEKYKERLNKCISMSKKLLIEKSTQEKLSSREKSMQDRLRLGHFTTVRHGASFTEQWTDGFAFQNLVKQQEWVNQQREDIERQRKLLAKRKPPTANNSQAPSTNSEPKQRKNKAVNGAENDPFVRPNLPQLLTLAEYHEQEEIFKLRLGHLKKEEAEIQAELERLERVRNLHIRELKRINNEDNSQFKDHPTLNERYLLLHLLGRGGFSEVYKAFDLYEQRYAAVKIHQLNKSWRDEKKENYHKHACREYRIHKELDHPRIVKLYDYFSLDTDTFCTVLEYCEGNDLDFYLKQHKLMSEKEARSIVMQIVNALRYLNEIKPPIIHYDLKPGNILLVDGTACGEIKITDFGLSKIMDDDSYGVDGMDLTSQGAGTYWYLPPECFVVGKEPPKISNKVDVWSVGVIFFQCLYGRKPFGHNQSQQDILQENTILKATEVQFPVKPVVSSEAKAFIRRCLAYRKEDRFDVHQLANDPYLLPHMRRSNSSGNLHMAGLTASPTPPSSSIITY
Method: FIG. 8A-FIG. 25 show further experiments into the present invention, with FIGS. 8A-8G show kinase assays, inhibitor screening, IC50 evaluation and competitive assays. Recombinant TLK1B purified to homogeneity (FIG. 8A) is active in kinase assays (FIG. 8B) and phosphorylates a specific Nek1 peptide (FIG. 8C). […] All experiments were conducted in triplicates. The DiscoverRx ADP Hunter™ (Eurofins DiscoverRx, Fremont, CA, US) Kit was used to measure the generation of ADP resulting from kinase phosphorylation of substrate.
Chemical synthesis of J54 and several different Phenothiazines and Protein expression and purification: Details were explained in section B of supplementary of material and methods. The full-length, 65 KDa recombinant human TLK1B (hTLK1B) for the in-vitro experiments was expressed and purified from bacteria as described earlier.
Results: A new PTH potent inhibitor of TLK1B. A few PTH antipsychotics were identified in a screen the inventors conducted from a compounds library as good inhibitors of TLK1. To find additional inhibitors, recombinant TLK1B was purified (FIG. 8A). The enzymatic activity was determined using the ADP-Hunter reagents and a Nek1 peptide containing the T141 target site. […] Several structurally similar compounds were synthesized as described in the Appendix (and see NMR and MS data FIGS. 10 and 11) and tested at 20 μM (FIGS. 8E and 8F). […] The inventors continued the inventors' characterization of J54.

recombinant TLK1B [2] = target: T1, recombinant TLK1B; experiment: High throughput screen with Rad9 peptide substrate / autokinase assay; type: biochemical; settings: library screen
Method: FIGS. 5A and 5B show Inhibition of TLK1/1B autophosphorylation by PTH. […] 293T cells were incubated for 1 hour with PPH. TLK1 was immunoprecipitated, followed by auto-phosphorylation with γ-ATP^32. The blots were then probed with TLK1 antiserum.
Identification of TLK inhibitors. The inventors have screened the Prestwick Library, partially the ChemDiv, and two proprietary libraries (10,000 compounds) for inhibitors of TLK with a high throughput screen with recombinant TLK1B and a Rad9 peptide substrate. […] The inhibition of autokinase activity was confirmed by TCA-precipitable counts with γ32P-ATP (FIG. 5A).

[3] = tested on: panel of cell lines, including RWPE1 and hTERT-HME1; experiment: Toxicity on a panel of cell lines without doxorubicin; type: cell-based; settings: 15 μM, absence of doxorubicin
LNCaP cells = experiment: Emergence of androgen insensitive (AI) colonies of LNCaP with bicalutamide; type: cell-based
456 human kinases = experiment: Kinome panel (KinomeScan-DiscoverX); type: binding

Row | Structure (SMILES) | inhibition of TLK (recombinant TLK1B [2]) | toxicity [3] | other results
1 | CC(O)(CS(=O)(=O)c1ccc(F)cc1)C(=O)Nc1ccc(C#N)c(C(F)(F)F)c1 (stereo not shown) [BIC, Bicalutamide, reference compound] |  |  | lag before exponential growth following beginning of administration (LNCaP xenografts): 12 days
2 | CN1c2ccccc2Sc2ccccc21 [J56, 10-methyl-10H-phenothiazine] |  |  | inhibition of TLK1B compared with standard (recombinant TLK1B [1]): more inhibitory than Staurosporin
3 | CN(C)CCCN1c2ccccc2Sc2ccccc21 [PMZ, Promazine] | strong inhibitors |  | 
4 | OCCN1CCN(CCCN2c3ccccc3Sc3ccc(Cl)cc32)CC1 [PPH, Perphenazine] | strong inhibitors | low toxicity | 
5 | CN1CCN(CCCN2c3ccccc3Sc3ccc(C(F)(F)F)cc32)CC1 [TFP, Trifloroperazine] | strong inhibitors | low toxicity | 
6 | CSc1ccc2c(c1)N(CCC1CCCCN1C)c1ccccc1S2 (stereo not shown) [THD, Thioridazine] | strong inhibitors | low toxicity | growth inhibition in androgen containing medium (FCS) (LNCaP cells; 3-9 μM THD): 50%; emergence of AI colonies (LNCaP cells; 3-9 μM THD with bicalutamide, three weeks): few or no AI colonies emerged; conversion of LNCaP cells to androgen independent growth (LNCaP cells; three weeks of culture with bicalutamide): Complete inhibition; specificity on kinome panel (456 human kinases): no other kinase (except TLK2) in the panel was inhibited
